Entries after “also recorded” stand apart in the source; their conditions may differ.
Tests used:
[1] = target: T1, ovine cyclooxygenase-1 (COX-1) (Ovis aries, UniProt P05979); test: In vitro COX inhibition assay (enzyme immunoassay kit), COX-1; format: biochemical; details: ovine COX-1, enzyme immunoassay kit
T1 construct: purchased Cayman Chemical 560131
T1 sequence (P05979 25-600): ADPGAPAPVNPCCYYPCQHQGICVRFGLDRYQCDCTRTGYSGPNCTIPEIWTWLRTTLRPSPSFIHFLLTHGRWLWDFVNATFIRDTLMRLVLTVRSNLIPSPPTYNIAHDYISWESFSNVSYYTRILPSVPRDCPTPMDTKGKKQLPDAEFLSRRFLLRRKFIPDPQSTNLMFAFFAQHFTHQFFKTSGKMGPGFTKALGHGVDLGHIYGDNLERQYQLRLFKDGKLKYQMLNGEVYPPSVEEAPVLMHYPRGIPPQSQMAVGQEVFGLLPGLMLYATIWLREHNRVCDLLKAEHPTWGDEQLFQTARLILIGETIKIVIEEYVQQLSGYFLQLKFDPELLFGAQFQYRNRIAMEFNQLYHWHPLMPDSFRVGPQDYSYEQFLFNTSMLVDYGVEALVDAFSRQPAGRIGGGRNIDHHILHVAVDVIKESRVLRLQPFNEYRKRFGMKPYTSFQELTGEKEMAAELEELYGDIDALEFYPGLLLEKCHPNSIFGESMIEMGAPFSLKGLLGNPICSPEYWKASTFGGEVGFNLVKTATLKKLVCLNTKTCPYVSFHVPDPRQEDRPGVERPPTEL
Description: (§1) The inhibition ability of 1-methylhydantoin cinnamic imides to ovine cyclooxygenase-1 (COX-1) and cyclooxygenase-2 (COX-2) was determined using an enzyme immunoassay kit. […] The Cell Counting Kit-8 (CCK-8) method was used to detect the cytotoxicity of the five target compounds (1–5) on lipopolysaccharide (LPS)-induced RAW264.7 cells. When the concentrations of compounds 1, 3 and 5 are lower than 20 μM, and when the concentrations of compounds 2 and 4 are lower than 80 μM, the survival rate of RAW264.7 cells is more than 95%, which has no obvious damage to cell survival and can be used for subsequent in vitro anti-inflammatory activity experiments to provide the basis.
(§2) The inhibition ability of ovine COX-1 and COX-2 was determined using an enzyme immunoassay kit (560131, Cayman Chemical, Ann Arbor, MI, USA) following the manufacturer’s instructions.

[2] = tested on: IL-1β secretion in RAW264.7 cells induced by LPS; test: IL-1β content in supernatant of LPS-induced RAW264.7 cells (ELISA); format: cell-based, mouse
Source text: Interleukin-1β (IL-1β) has strong proinflammatory activity and can induce the production of a variety of proinflammatory mediators, such as cytokines and chemokines. In this work, the ELISA method was used to determine the IL-1β content in the supernatant of RAW264.7 cells stimulated by LPS to evaluate the effects of five compounds on IL-1β secretion.
(§3) RAW264.7 mouse macrophages were purchased from Zhongqiao Xinzhou and cultured in DMEM supplemented with 10% fetal bovine serum (FBS) and 1% penicillin/streptomycin in a 37 °C, 5% CO2 incubator. The cells were passaged every two days to maintain the monolayer cell state.
(§4) The RAW264.7 cells in the logarithmic growth phase were seeded in a 24-well plate and placed in a 37 °C, 5% CO2 constant temperature incubator for culture. After 24 h, the culture medium was discarded. The blank group was added with 10% FBS DMEM 1 mL. The group was added with a medium containing 1 ug/mL LPS, and the experimental group was added with LPS and different concentrations of the target compound to make the final volume 1 mL. After 24 h of culture, the cell supernatant was taken and stored in a refrigerator at −20 °C for later use. The Griess kit was used to determine the concentration of NO in the supernatant, and a double antibody sandwich ELISA kit was used to detect TNF-α and IL-1β.

[3] = target: T2, ovine cyclooxygenase-2 (COX-2); test: In vitro COX inhibition assay (enzyme immunoassay kit), COX-2; format: biochemical; details: ovine COX-2, enzyme immunoassay kit
T2 construct: purchased Cayman Chemical 560131
Description: as §1, §2

[4] = Cytotoxicity determination by CCK-8; format: cell-based; details: mouse, RAW264.7 macrophage cells, RAW264.7 cells
Description: as §3
The CCK-8 kit was used to determine the cytotoxicity of the target compounds (1–5) to RAW264.7 cells. The well-growing cells were subcultured in a 96-well plate. After the cells adhered to the wall, the experimental group was added with a medium containing different concentrations of compounds to make the final concentration reach 5, 10, 20, 40, 80, 160 and 320 μmoL/L. The control group was added with a medium without compound, and a blank group without cells or compound was set at the same time. After culturing in a constant temperature incubator for a period, CCK-8 solution was added to produce yellow formazan product. The OD value was measured by the microplate reader at the detection wavelength of 450 nm, and the cell survival rate was calculated. The cell survival rate formula is as follows:(1) Cell Survival Rate %=ODe−ODb/ODc−ODb×100% where ODe was the OD value of the experimental group, ODb was the OD value of the blank group, and ODc was the OD value of the control group.

[5] = tested on: NO release from RAW264.7 cells induced by LPS; test: NO content in supernatant of LPS-induced RAW264.7 cells (Griess); format: cell-based, mouse; details: for inhibition of NO production: 80 μM, LPS 1 ug/mL, 24 h, RAW264.7; for inhibition of NO release: LPS-stimulated RAW264.7, concentration not stated
Description: NO is an important indicator to predict the anti-inflammatory effects of drugs. It has been identified as a proinflammatory cytokine in various inflammatory diseases. NO can induce vasodilation, recruit neutrophils and […] the activation of mast cells, leading to tissue damage. It is essential to reduce the production of NO for inflammatory release. To explore the anti-inflammatory effects of the five compounds, the LPS-induced inflammatory response of RAW264.7 cells was carried out. The NO content in the cell supernatant was measured by the Griess method to evaluate the inhibitory effects of these five compounds on NO production.
as §3, §4

[6] = tested on: TNF-α secretion in RAW264.7 cells induced by LPS; test: TNF-α content in supernatant of LPS-induced RAW264.7 cells (ELISA); format: cell-based, mouse
Description: Tumor necrosis factor-α (TNF-α) is a pleiotropic proinflammatory cytokine, known for its proinflammatory activity. To explore the inhibitory effects of five compounds on TNF-α, ELISA was used to determine the content of inflammatory factor TNF-α in the supernatant of RAW264.7 cells stimulated by LPS. RAW264.7 cells secreted a large amount of inflammatory-factor TNF-α 24 h after LPS (1 ug/mL) induction.
as §3, §4

[7] = 80 μM, LPS, 24 h, RAW264.7, vs model group
[8] = LPS-stimulated RAW264.7, concentration not stated
[9] = 80 μM, LPS 1 ug/mL, 24 h, RAW264.7, vs model group

T2 sequence (P35354 18-604): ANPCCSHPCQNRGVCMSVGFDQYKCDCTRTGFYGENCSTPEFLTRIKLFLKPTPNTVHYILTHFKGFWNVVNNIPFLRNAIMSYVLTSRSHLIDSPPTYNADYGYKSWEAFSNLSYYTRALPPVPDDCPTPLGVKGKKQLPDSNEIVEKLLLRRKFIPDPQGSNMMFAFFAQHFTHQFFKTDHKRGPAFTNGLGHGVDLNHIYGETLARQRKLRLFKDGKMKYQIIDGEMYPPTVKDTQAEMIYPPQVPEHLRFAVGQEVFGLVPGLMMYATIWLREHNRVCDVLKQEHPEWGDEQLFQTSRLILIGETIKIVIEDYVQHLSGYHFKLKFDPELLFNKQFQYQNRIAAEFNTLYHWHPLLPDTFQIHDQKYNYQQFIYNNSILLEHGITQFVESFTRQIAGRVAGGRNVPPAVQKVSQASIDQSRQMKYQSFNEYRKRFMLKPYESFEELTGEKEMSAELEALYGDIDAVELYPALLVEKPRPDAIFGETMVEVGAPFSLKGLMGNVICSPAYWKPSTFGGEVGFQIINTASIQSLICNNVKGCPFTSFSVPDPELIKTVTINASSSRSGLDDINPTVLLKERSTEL

Compound | melting point [°C] | IC50 [1] [µM] | inhibition of IL-1β secretion [2, 7] | inhibition of IL-1β secretion [2, 8] | IC50 [3] [µM] | CC50 [4] [µM] | inhibition of NO production [5] | inhibition of NO release [5] | inhibition of TNF-α secretion [6, 9] | inhibition of TNF-α secretion [6, 8] | inhibition of IL-1β secretion ([2]; 20 μM, LPS, 24 h, RAW264.7, vs model group) | inhibition of TNF-α secretion ([6]; 20 μM, LPS 1 ug/mL, 24 h, RAW264.7, vs model group)
CC(=O)Oc1ccc(/C=C/C(=O)N2C(=O)CN(C)C2=O)cc1 [Compound 4, (E)-4-(3-(3-methyl-2,5-dioxoimidazolidin-1-yl)-3-oxoprop-1-en-1-yl)phenyl acetate] | 148.9 to 149.6 | 37 ± 4 | significant inhibitory effect on the secretion of IL-1β | reduce the secretion of TNF-α and IL-1β; also recorded: significantly inhibited the secretion of inflammatory factors TNF-α and IL-1β | 126 ± 12 | 302 | showed a significant effect on NO | significantly inhibit the release of NO; also recorded: reduced the release of NO | significantly reduce the secretion of TNF-α; also recorded: most significant | reduce the secretion of TNF-α; also recorded: significantly inhibited the secretion of inflammatory factors TNF-α | – | –
CN1CC(=O)N(C(=O)/C=C/c2ccco2)C1=O [Compound 2, (E)-3-(3-(furan-2-yl)acryloyl)-1-methylimidazolidine-2,4-dione] | 128.9 to 129.8 | 56 ± 6 | significant inhibitory effect on the secretion of IL-1β | reduce the secretion of TNF-α and IL-1β | 204 ± 10 | 329 | showed a significant effect on NO | significantly inhibit the release of NO | significantly reduce the secretion of TNF-α | reduce the secretion of TNF-α | no obvious inhibitory effect on IL-1β | no obvious inhibitory effect on TNF-α
